Measurements published in patent US20230035592A1, “DIRECT AMPK ACTIVATOR COMPOUNDS COMBINED WITH INDIRECT AMPK ACTIVATOR COMPOUNDS, COMPOSITIONS, METHODS AND USES THEREOF” (SOCIETE DES PRODUITS NESTLE S.A., priority 2019, published 2023).

Assays:
[1] = system: AMPK; assay: pACC HTRF (Cisbio) assay, phosphorylation of ACC in U-2 OS Flp-In T-REx cells; assay type: cell-based; details: for phosphorylation of the AMPK substrate ACC (ratio 665/620 nm): varying concentrations, 30 mins at 37 C
Description: U-2 OS cells were treated with varying concentrations of compound 1 for 30 mins at 37 C. Phosphorylation of ACC was assessed using the HTRF Cisbio (pACC kit).
U-2 OS cells were treated with varying concentrations of compound 1 for 30 mins at 37 C in the presence or absence of 11 μM of compound 2. Phosphorylation of ACC was assessed using the HTRF Cisbio (pACC kit).
First, we monitored the activation of AMPK within cells using the indirect activator, compound 1. U-2 OS Flp-In T-REx cells were seeded at 50 K in a 96-well plate and left overnight at 37 C in DMEM GlutaMAX (Thermo Fisher Scientific) supplemented with 10% (vol/vol) FBS and 100 U/ml penicillin G, and 100 μg/ml streptomycin. Cells were treated for 30 mins with varying concentrations of Compound 1 in media lacking FBS and then cells were lysed in 50 μl of Cisbio lysis buffer #1 supplemented with blocking solution as per the manufacturer's protocol (Cisbio). Cells were lysed for 30 mins at room temperature before 16 μl of lysate was incubated with 4 μl of the HTRF antibodies (1:40 dilution of the acceptor and donor (p)ACC antibodies, as per the manufacturers protocol). Lysates were incubated overnight with the antibodies before the 665 nm/620 nm ratio was determined using a MolecularDevices i3 plate reader (with a HTRF cartridge add-on).
To investigate whether treatment of compound 1 with our new identified direct benzocoumarin AMPK activator, compound 2, could improve the activation of AMPK, cells were treated for 30 mins with varying concentrations of compound 1 in the presence or absence of 11 μM compound 2. Cells were cultured and analysed according to example 1.

[2] = system: AMPK β1 WT; assay: pACC HTRF assay in AMPKβ1/β2 double knockout U-2 OS cells stably expressing β1 WT; assay type: cell-based, human
Description: (§1) The β1 WT or β1 S108A mutant were stably expressed in AMPKβ1β2 double knockout cells and were treated with varying concentrations of compound 1 for 30 mins at 37 C in the presence or absence of 11 μM of compound 2. Phosphorylation of ACC was assessed using the HTRF Cisbio (pACC kit).
(§2) AMPKβ1/β2 double knockout U-2 OS Flp-In™ T-Rex™ cell lines were generated by Horizon Discovery (Cambridge, UK). Cells were genotyped and analysed by Western blotting to confirm that there was a complete knockout of AMPKβ1/β2. We took these AMPKβ1/β2 double knockout cells, and re-introduced the expression of human β1 wild-type (WT) or a β1 Serine 108 to alanine mutation (S108A). This was achieved using the Flp-In™ system (Invitrogen) present in this cell line and stable cells expressing β1 WT or a β1 S108A mutant were generated according to the manufacturers' protocols. Re-expression of the β1 subunit was confirmed by Western blot analysis.
(§3) Cells stably expressing β1 WT or a β1 S108A mutant were treated with varying concentrations of Compound 1 in the presence or absence of a fixed concentration (11 μM) of compound 2. Cells lysates were subjected to the pACC HTRF (Cisbio) assay to determine the level of phosphorylation of the AMPK substrate, ACC, in cell lysates, as in example 1.

[3] = system: ADaM-binding site AMPK mutant (β1 S108A); assay: pACC HTRF assay in AMPKβ1/β2 double knockout U-2 OS cells stably expressing β1 S108A mutant; assay type: cell-based, human; details: fixed 11 μM compound 2 with varying concentrations of compound 1
Description: as §1, §2, §3

[4] = system: AMPK complexes containing the β2 isoform subunit; assay: pACC HTRF assay in AMPKβ1/β2 double knockout U-2 OS cells stably expressing β2 WT isoform; assay type: cell-based, human; details: fixed 11 μM compound 2 with varying concentrations of compound 1
Description: U-2 OS cells AMPKβ1β2 double knockout cells stably expressing AMPK β2 were treated with varying concentrations of compound 1 for 30 mins at 37 C in the presence or absence of 11 μM of compound 2. Phosphorylation of ACC was assessed using the HTRF Cisbio (pACC kit).
We took AMPKβ1/β2 double knockout cells, and re-introduced the expression of the human β2 WT isoform. […] Cells stably expressing β2 WT were treated with varying concentrations of Compound 1 in the absence or presence of a fixed concentration (11 μM) of compound 2. Cell lysates were subjected to the pACC HTRF (Cisbio) assay to determine the level of phosphorylation of the AMPK substrate, ACC, in cell lysates, as in Example 1. […] Direct activation AMPK by binding to the ADaM site was impaired or abolished in β2-containing complexes in vitro and in cells. The inability of compound 2 to improve the activation of AMPK by compound 1, was consistent with the knowledge we have generated showing the compound 2 binds to the ADaM-site of AMPK. […] Low doses of compound 1 in combination with compound 2 could activate AMPK.

SMILES	effect on the dose-response curve of compound 1 (pACC) ([1]; fixed 11 μM compound 2 with varying concentrations of compound 1, 30 mins)	effect on the dose-response curve of compound 1 (pACC) ([2]; β1 WT cells, fixed 11 μM compound 2 with varying concentrations of compound 1)	effect on the dose-response curve of compound 1 (pACC) [3]	effect on the dose-response curve of compound 1 (pACC) [4]	phosphorylation of the AMPK substrate ACC (ratio 665/620 nm) [1]	phosphorylation of the AMPK substrate ACC (ratio 665/620 nm) ([1]; listed as compound 1)	pACC (fold increase in activation) ([2]; cells stably expressing β1 WT, varying concentrations, 30 mins at 37 C)
COc1cc(O)c2c(c1)c(=O)oc1cc(O)ccc12 [Compound 2, 3,10-Dihydroxy-8-methoxy-6H-benzo[c]chromen-6-one]	left-shift in the dose-response curve	capable of causing a left-shift and improvement	not able to cause a left-shift and improvement	did not improve the dose-response curve	–	–	–
O=c1oc2cc(O)ccc2c2ccccc12 [Compound 1, 3-hydroxy-6H-benzo[c]chromen-6-one]	–	–	–	–	increased the phosphorylation of the AMPK substrate, ACC, in a dose-dependent manner	increases the phosphorylation of the AMPK substrate, ACC, in a dose-dependent manner	able to dose-dependently increase pACC
